According to PMC4476799, “Englerin A Agonizes the TRPC4/C5 Cation Channels to Inhibit Tumor Cell Line Proliferation” (PLoS ONE, 2015):
Where two headings read alike, the source gives them in different places.

System: cancer cell lines from the cancer cell line encyclopedia (CCLE)
Test: Cell line profiling (CLiP) proliferation experiment
Type: cell-based
Details: Homo sapiens; for IC50: read-out: Crossing Point; for EC50: read-out: Inflection Point
Protocol: Compound profiling experiment and data analysis was performed as previously described. Data was imported and plotted using the Tibco Spotfire DXP application. Lines were categorized as sensitive, intermediate and refractory as follows: Amax<-40 & Inflection Point <2 ~ Sensitive, Amax>-20 & Inflection Point >10 ~ Refractory, all else were called Intermediate. Cancer Cell line HG-U133 Plus 2 data was processed and normalized as described. […] Five sets of refractory cell lines were generated from the pool of refractory cell lines trying to match the lineage composition of the set of sensitive cell lines. The limma package was used as previously described to perform the statistical comparison.

[1] = NCI-H1666, cell line NCI-H1666 (lung)
[2] = NCI-H1703, cell line NCI-H1703 (lung)
[3] = NCI-H1734, cell line NCI-H1734 (lung)
[4] = NCI-H1793, NCI-H1793, lung, adenocarcinoma
[5] = NCI-H2122, NCI-H2122, lung, adenocarcinoma
[6] = NCI-H2405, NCI-H2405, lung, adenocarcinoma
[7] = NCI-H3255, NCI-H3255, lung, adenocarcinoma
[8] = NUGC-4, NUGC-4, stomach, signet_ring_adenocarcinoma
[9] = OC-314, OC 314, ovary, serous_carcinoma
[10] = OCI-LY19, OCI-LY-19, haematopoietic_and_lymphoid_tissue, diffuse_large_B_cell_lymphoma
[11] = P12-Ichikawa, P12-ICHIKAWA cells
[12] = P12-Ichikawa, cell line P12-ICHIKAWA

CC(C)[C@@]12C[C@@H](O)[C@@](C)(O1)[C@@H]1CC[C@@H](C)[C@H]1[C@@H]2OC(=O)/C=C/c1ccccc1 [Englerin B]
IC50 [1]: 22.4 µM
EC50 [1]: 22.8 µM
IC50 (NCI-H1693, cell line NCI-H1693 (lung)): > 30 µM
IC50 (NCI-H1693, cell line NCI-H1693): > 30 µM
IC50 [2]: 14.9 µM
EC50 [2]: 23.1 µM
IC50 [3]: 19.6 µM
EC50 [3]: 19.6 µM
IC50 (NCI-H1792, NCI-H1792, lung, adenocarcinoma): 24.9 µM
IC50 (NCI-H1792, cell line NCI-H1792 (lung, adenocarcinoma)): 24.9 µM
IC50 [4]: > 30 µM
EC50 [4]: 22.5 µM
IC50 (NCI-H1793, cell line NCI-H1793): > 30 µM
IC50 (NCI-H1944, NCI-H1944, lung, adenocarcinoma): 15.8 µM
IC50 (NCI-H1944, cell line NCI-H1944): 15.8 µM
IC50 (NCI-H1975, NCI-H1975, lung, adenocarcinoma): > 30 µM
IC50 (NCI-H1975, NCI-H1975 cells): > 30 µM
IC50 [5]: > 30 µM
EC50 [5]: 10.6 µM
IC50 (NCI-H2122, cell line NCI-H2122): > 30 µM
IC50 (NCI-H2126, NCI-H2126, lung, adenocarcinoma): > 30 µM
IC50 (NCI-H2126, NCI-H2126 cells): > 30 µM
IC50 (NCI-H2170, NCI-H2170, lung, squamous_cell_carcinoma): > 30 µM
IC50 (NCI-H2170, cell line NCI-H2170): > 30 µM
IC50 [6]: > 30 µM
EC50 [6]: 14.6 µM
IC50 (NCI-H2405, cell line NCI-H2405): > 30 µM
IC50 (NCI-H2452, NCI-H2452, pleura, NS): > 30 µM
IC50 (NCI-H2452, cell line NCI-H2452): > 30 µM
IC50 [7]: 27 µM
EC50 [7]: 27 µM
IC50 (NCI-H3255, NCI-H3255 cells): 27 µM
EC50 (NCI-H3255, NCI-H3255 cells): 27 µM
IC50 (NUGC-3, NUGC-3, stomach, NS): > 30 µM
IC50 (NUGC-3, NUGC-3 cells): > 30 µM
IC50 [8]: 22 µM
EC50 [8]: 15.9 µM
EC50 (NUGC-4, NUGC-4 cells): 15.9 µM
IC50 (OAW-42, OAW42, ovary, adenocarcinoma): > 30 µM
IC50 (OAW-42, OAW42 cells): > 30 µM
IC50 [9]: > 30 µM
EC50 [9]: 14.9 µM
IC50 (OC-314, OC 314 cells): > 30 µM
EC50 (OC-314, OC 314 cells): 14.9 µM
IC50 (OCI-AML2, OCI-AML2, haematopoietic_and_lymphoid_tissue, acute_myeloid_leukaemia): 16.1 µM
IC50 (OCI-AML-3, OCI-AML3, haematopoietic_and_lymphoid_tissue, acute_myeloid_leukaemia): 18.2 µM
IC50 [10]: 14.2 µM
EC50 [10]: 14.8 µM
EC50 (OCI-LY19, OCI-LY-19 cells): 14.8 µM
IC50 (OCI-Ly3, OCI-LY3, haematopoietic_and_lymphoid_tissue, diffuse_large_B_cell_lymphoma): 13.3 µM
IC50 (OE19, OE19, oesophagus, adenocarcinoma): 20.4 µM
IC50 (OS-RC-2, OS-RC-2 cells): > 30 µM
EC50 (OS-RC-2, OS-RC-2 cells): 11.5 µM
IC50 (OS-RC-2, cell line OS-RC-2): > 30 µM
EC50 (OS-RC-2, cell line OS-RC-2): 11.5 µM
IC50 (OV-90, OV-90 cells): > 30 µM
IC50 (OV-90, cell line OV-90): > 30 µM
IC50 (OVCAR-4, cell line OVCAR-4): 29.6 µM
IC50 (OVCAR-8, cell line OVCAR-8): 20.7 µM
EC50 (OVSAHO, OVSAHO cells): 18.1 µM
IC50 (OVSAHO, cell line OVSAHO): 23.6 µM
EC50 (OVSAHO, cell line OVSAHO): 18.1 µM
IC50 (P3HR-1, cell line P3HR-1): 25.4 µM
IC50 [11]: 19.1 µM
EC50 [11]: 19.1 µM
IC50 [12]: 19.1 µM
EC50 [12]: 19.1 µM
IC50 (P31-FUJ, cell line P31/FUJ): 19.6 µM
IC50 (PANC-1, cell line PANC-1): 23.8 µM
IC50 (PANC-03-27, cell line Panc 03.27): 21.1 µM
IC50 (PC-14, cell line PC-14): 21.4 µM
EC50 (PF-382, PF-382 cells): 13.1 µM
IC50 (PF-382, cell line PF-382): 16.6 µM
EC50 (PF-382, cell line PF-382): 13.1 µM
IC50 (PLC-PRF-5, PLC/PRF/5 (liver)): 14.5 µM
IC50 (PLC-PRF-5, cell line PLC/PRF/5): 14.5 µM
IC50 (PSN1, cell line PSN1): 29.7 µM
IC50 (Panc 02.03, Panc 02.03 cells): > 30 µM
IC50 (Panc 02.03, cell line Panc 02.03): > 30 µM
IC50 (Panc 04.03, Panc 04.03 cells): > 30 µM
IC50 (Panc 04.03, cell line Panc 04.03): > 30 µM
EC50 (Panc1005, Panc 10.05 cells): 10.9 µM
IC50 (Panc1005, cell line Panc 10.05): 13 µM
EC50 (Panc1005, cell line Panc 10.05): 10.9 µM
IC50 (RD, RD cells): > 30 µM
IC50 (REH, Reh cells): 21.5 µM
EC50 (REH, Reh cells): 21.5 µM
IC50 (RPMI 8402, RPMI-8402 cells): 19.1 µM
IC50 (RPMI 8402, cell line RPMI-8402): 19.1 µM
IC50 (RPMI-7951, cell line RPMI-7951): 19.7 µM
EC50 (RPMI-7951, cell line RPMI-7951): 13.7 µM
IC50 (RPMI-8226, cell line RPMI 8226): 16.9 µM
